The values that follow come from PubChem BioAssay (NCI).

What all share (assay): inhibition of tumour cell growth, NCI panel, 48 h
Test [1] has as its system EKVX NSCLC.
The test system of test [2] is NCI/ADR-RES ovarian.
Test [3] has as its system PC-3 prostate.
For test [4], the system named is UACC-257 melanoma.
Test [5] has as its system HOP-62 NSCLC.
In test [6] the test system is NCI-H23 lung.
The subject of test [7] is NCI-H460 lung.
The subject of test [8] is MOLT-4 leukemia.

Where “and” joins values, the source holds several entries; their conditions need not be identical. Identical values can stand only once.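 Briefly, cells in 96-well plates were exposed to five compound concentrations for 48 h, and endpoints were estimated by linear interpolation. GI50 = concentration required for 50% inhibition of growth. TGI: total growth inhibition.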

As to `CCCCCCCCCCCCOC1C(CNC(=O)C2OC3OC(C)(C)OC3C2NC(=O)CN2CCCCCC2)OC2OC(C)(C)OC21` (centres undefined), the GI50 was 8.15 µM in test [1]; 4.14 µM in test [2]; 4.57 µM in test [3]; 3.14 µM in test [4]; 6.48 µM in test [5]; 10.9 µM in test [6]. For the same molecule, the values for the GI50 in test [7] and in test [8] were 5.19 µM and 3.12 µM, respectively. Besides, the TGI is 20.7 µM in test [1]; 15.7 µM in test [2]; 15.8 µM in test [3]; 8.75 µM in test [4]; 18.1 µM in test [5]; 24.8 µM in test [6]. Besides, the TGI was 18.4 µM in test [7] and 9.85 µM in test [8].
In the case of `CC(=O)OC1CC2C(C)(C)C(=O)C=CC2(C)C2CCC3(C)C(c4ccoc4)OC(=O)C4OC43C12C` (centres undefined), the TGI in test [1] was above 100 µM; in test [2], above 100 µM; in test [3], above 100 µM; in test [4], above 100 µM; in test [5], 87 µM; in test [6], 41.5 µM. In addition, the TGI in test [7] worked out at 16.1 µM; in test [8] it was 76.4 µM.
Consider `Cc1c(NC(=O)OC[C@@H]2COCCN2)cn2ncnc(Nc3ccc4c(cnn4Cc4cccc(F)c4)c3)c12`, for which the GI50 is 0.716 µM and 0.257 µM in test [1]; > 10 µM and 13.1 µM in test [2]; > 10 µM and 10.2 µM in test [3]; > 10 µM and 5.34 µM in test [4]; > 10 µM and 11.5 µM in test [5]; > 10 µM and 11.9 µM in test [6]. Also, the GI50 in test [7] was > 10 µM and 6.57 µM; in test [8], 7.63 µM and 7.76 µM. Moreover, the TGI in test [1] was > 10 µM and 14.2 µM; in test [2] it was > 10 µM and 33.5 µM; in test [3], > 10 µM and 31.8 µM; in test [4], > 10 µM and 18.2 µM; in test [5], > 10 µM and 24.9 µM; in test [6], > 10 µM and 26.4 µM. Further, the TGI was > 10 µM and 24 µM in test [7]; > 10 µM and 24.1 µM in test [8].
Turning to `CCCCC#CC#Cc1cccc(=O)o1`, the GI50 is 49 µM in test [1]; 17.2 µM in test [2]; 31 µM in test [3]; 22.1 µM in test [4]; 18.1 µM in test [5]; 18.4 µM in test [6]. In addition, the GI50 in test [7] was 20.9 µM; in test [8], 4.77 µM. Also, the TGI in test [1] is above 100 µM; in test [2], 37.4 µM; in test [3], above 100 µM; in test [4] it was 46.7 µM; in test [5], 34.4 µM; in test [6], 36.2 µM. For the same molecule, the TGI in test [7] was above 100 µM; in test [8], 32.1 µM.
Regarding `CS(=O)(=O)CCNCc1ccc(-c2ccc3ncnc(Nc4ccc(OCc5ccccc5)c(Cl)c4)c3c2)o1`, the GI50 in test [1] is 0.132 µM; in test [2] it was 5.9 µM; in test [3], 7.41 µM; in test [4], 3.92 µM; in test [5], 6.83 µM; in test [6] it was 8.98 µM. The figures for the GI50 in test [7] and in test [8] were 6.07 µM and 6.05 µM, respectively. The TGI was above 18.7 µM in test [1]; above 25 µM in test [2]; 24.2 µM in test [3]; 7.74 µM in test [4]; above 20.3 µM in test [5]; above 25 µM in test [6]. Also, the values for the TGI in test [7] and in test [8] were above 17.8 µM and above 25 µM, respectively.
As to `CCOC(=O)c1cc2c(n1Cc1ccccc1)-c1oncc1CC2`, the GI50 is 5.65 µM in test [1]; 2.01 µM in test [2]; 9.68 µM in test [3]; 10.7 µM in test [4]; 5.3 µM in test [5]; 6.37 µM in test [6]. Also, the GI50 was 3.08 µM in test [7] and 4.73 µM in test [8]. In addition, the TGI in test [1] is 49.5 µM; in test [2], 6.3 µM; in test [3] it was 94.1 µM; in test [4], 59.7 µM; in test [5], above 100 µM; in test [6], 67.1 µM. In addition, the TGI in test [7] is 11.4 µM; in test [8] it was 44.6 µM.
`Cc1cc(C)nc(SC2=C(Nc3cccc(Cl)c3C)C(=O)N(Cc3ccccc3)C2=O)n1`: the GI50 in test [1], in test [2], in test [3], in test [4], in test [5] and in test [6] was above 160 µM throughout. Further, the GI50 in test [7] and in test [8] was above 160 µM each time. Moreover, the TGI in test [1], in test [2], in test [3], in test [4], in test [5] and in test [6] was above 160 µM throughout. In addition, the TGI in test [7] and in test [8] was above 160 µM each time.
Regarding `O=C(c1ccccc1)c1nc2ccc(C(F)(F)F)cc2[n+]([O-])c1C(F)(F)F`, the GI50 is 21.1 µM in test [1]; 27 µM in test [2]; 24.5 µM in test [3]; 22.7 µM in test [4]; 59.6 µM in test [5]; 29.1 µM in test [6]. Besides, the GI50 was 23.5 µM in test [7] and 23 µM in test [8]. Besides, the TGI in test [1], in test [2], in test [3], in test [4], in test [5] and in test [6] was above 100 µM in each case. Further, the TGI in test [7] was above 100 µM; in test [8] it was 73.7 µM.
As to `C=C1C(=O)O[C@H]2[C@H]1CC/C(COC(=O)c1ccc(C#N)cc1)=C\CC[C@@]1(C)O[C@@H]21`, the GI50 was 2.26 µM in test [1]; 4.25 µM in test [2]; 3.97 µM in test [3]; 1.69 µM in test [4]; 7.43 µM in test [5]; 2.25 µM in test [6]. Also, the values for the GI50 in test [7] and in test [8] were 3.46 µM and 2.37 µM, respectively. The TGI was 6.85 µM in test [1]; 18.8 µM in test [2]; 15.6 µM in test [3]; 4.1 µM in test [4]; 22.6 µM in test [5]; 6 µM in test [6]. The TGI worked out at 14.5 µM in test [7] and 6.52 µM in test [8].
For the molecule `O=[N+]([O-])c1ccc(Sc2c3ccccc3nc3ccccc23)nc1`, the TGI in test [1] amounted to 31 µM; in test [2] it was 45.7 µM; in test [3] it was 28.9 µM; in test [4] it was 19.2 µM; in test [5], 47.3 µM; in test [6], 19.8 µM. Further, the TGI in test [7] stood at 42.6 µM; in test [8], 8.99 µM.
